Laboratory results from article PMC4450297, “Screening Active Compounds from Garcinia Species Native to China Reveals Novel Compounds Targeting the STAT/JAK Signaling Pathway” (BioMed Research International, 2015).
Read-outs that look alike come from different tables or passages of the source.

Columns and labels:
NCI-H1650 cells = test: Soft-agar colony formation assay; format: cell-based; conditions: Homo sapiens, 168 h; NCI-H1650 cells in soft agar, one week, Alamar Blue; read-out: IC50, cell colony formation
Method: NCI-H1650 cells were plated in soft agar (Takara, Japan) at a density of 4000 cells/well in a 96-well plate. For the base layer, 1.2% agar stock solution was melted in an autoclave, cooled to 40°C in a water bath, and then mixed with RPMI1640 medium to obtain a solution of 0.6% agar in RPMI1640 containing 10% FBS. A cell suspension placed on the top layer was composed of RPMI1640 with 10% FBS and 0.4% agarose in each well. Then, the cells were incubated overnight. Compounds were added into the wells, and the NCI-H1650 cells were incubated for one week. After 7 days, alamar blue was added to the agar plate wells containing NCI-H1650 cell, and the plates were returned to the incubator. The fluorescence intensity (excitation 560 nm, emission 590 nm) was measured after 24 h.

JAK3 = target: T1, JAK3 (Homo sapiens, UniProt P52333); test: Microfluidic mobility shift enzyme assay; format: biochemical
T1 construct: purchased Carna Bioscience, Inc. (Japan)
T1 sequence (P52333 1-1124): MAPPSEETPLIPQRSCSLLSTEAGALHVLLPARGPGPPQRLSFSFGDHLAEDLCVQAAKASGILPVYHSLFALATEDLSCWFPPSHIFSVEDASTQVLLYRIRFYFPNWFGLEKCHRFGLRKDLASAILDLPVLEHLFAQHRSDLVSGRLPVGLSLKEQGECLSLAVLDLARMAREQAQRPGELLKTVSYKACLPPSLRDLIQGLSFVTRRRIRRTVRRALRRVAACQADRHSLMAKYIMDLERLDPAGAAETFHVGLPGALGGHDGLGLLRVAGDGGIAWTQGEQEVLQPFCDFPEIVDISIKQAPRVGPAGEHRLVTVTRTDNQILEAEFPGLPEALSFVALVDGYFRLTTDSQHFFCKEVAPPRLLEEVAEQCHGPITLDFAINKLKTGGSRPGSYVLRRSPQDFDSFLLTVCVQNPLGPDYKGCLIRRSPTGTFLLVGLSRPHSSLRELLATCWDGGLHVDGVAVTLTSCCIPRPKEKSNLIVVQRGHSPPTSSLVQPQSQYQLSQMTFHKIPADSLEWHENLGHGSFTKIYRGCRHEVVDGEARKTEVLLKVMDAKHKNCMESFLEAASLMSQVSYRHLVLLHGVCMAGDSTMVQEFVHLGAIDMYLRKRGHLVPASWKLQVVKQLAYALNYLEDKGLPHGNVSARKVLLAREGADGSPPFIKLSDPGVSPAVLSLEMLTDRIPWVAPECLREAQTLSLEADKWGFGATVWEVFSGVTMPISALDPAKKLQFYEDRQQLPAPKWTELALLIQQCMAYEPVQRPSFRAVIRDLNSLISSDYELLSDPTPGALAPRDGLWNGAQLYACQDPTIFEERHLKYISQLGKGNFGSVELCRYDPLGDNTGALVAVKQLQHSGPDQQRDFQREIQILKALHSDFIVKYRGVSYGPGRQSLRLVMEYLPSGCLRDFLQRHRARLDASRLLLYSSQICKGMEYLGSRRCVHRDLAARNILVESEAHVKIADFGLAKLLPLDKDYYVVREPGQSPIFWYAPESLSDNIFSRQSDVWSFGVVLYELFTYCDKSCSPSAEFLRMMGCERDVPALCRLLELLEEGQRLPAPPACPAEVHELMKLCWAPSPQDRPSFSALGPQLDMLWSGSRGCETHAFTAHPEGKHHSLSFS
Method: (§1) The microfluidic mobility shift enzyme assay was performed in an on-chip incubation mode on a Caliper LabChip 2000 Drug Discovery System (Caliper Life Sciences, Hopkinton, MA). The extent of inhibition by the compounds is measured directly by quantifying the level of both unphosphorylated peptide substrate and phosphorylated product after electrophoretic separation using Caliper's LabChip assay technology. To evaluate the compounds for their target and the mechanism by which the compound affects JAK enzyme activity, the compounds were tested against JAK family kinases (JAK1, JAK2, JAK3, and Tyk2) with the Caliper microfluidic mobility-shift platform. The JAK family kinase enzymes and the FAM-labeled substrates were purchased from Carna Bioscience, Inc. (Japan) and Caliper Bioscience (US), respectively.
(§2) For JAK kinase activity measurement, the test compounds were diluted freshly with assay buffer (100 mM HEP ES, 10 mM MgCl2, 1.5 mM betaine, 0.015% Brij, and 25 mM β-glycerophosphate) and added to 384-well plates. FAM-labeled peptide substrate and ATP in assay buffer were added to the wells. After that, JAK enzymes prepared in assay buffer were also added to the wells and mixed to start the reaction. After a period of incubation at room temperature, the reaction was stopped by stop solution (500 mM EDTA). Finally, the plate was put on a Caliper LabChip 2000 system and a droplet of the reaction mixture was applied for electrophoretic separation in the chips of the machine. The enzyme conversion data then was read out for analysis.

JAK1 = target: T2, JAK1 (Homo sapiens, UniProt P23458); test: Microfluidic mobility shift enzyme assay; format: biochemical
T2 construct: purchased Carna Bioscience, Inc. (Japan)
Method: as §1, §2

JAK2 = target: T3, JAK2 (Homo sapiens, UniProt O60674); test: Microfluidic mobility shift enzyme assay; format: biochemical
T3 construct: purchased Carna Bioscience, Inc. (Japan)
Method: as §1, §2

Tyk2 = target: T4, Tyk2 (Homo sapiens, UniProt P29597); test: Microfluidic mobility shift enzyme assay; format: biochemical
T4 construct: purchased Carna Bioscience, Inc. (Japan)
Method: as §1, §2

[1] = test system: PUMA, NOXA, and CDIP mRNA in NCI-H1650 cells; test: Quantitative real-time PCR of proapoptotic genes; format: cell-based, human; conditions: 24-hour treatment
From the text: The primers for PUMA (Cat. Hs00248075_m1), CDIP1 (Cat. Hs00924663_g1), and NOXA (Cat. Hs00560402_m1) for quantitative PCR were all purchased from Invitrogen. Dissociation curves and no-cDNA controls were generated for each primer pair to detect nonspecific amplification. A standard curve was generated for each primer pair as well as for glyceraldehyde-3-phosphate dehydrogenase (GAPDH; using in this case a predeveloped TaqMan assay), to which gene expression levels were normalized by a comparative threshold cycle method. Finally, a ratio was calculated comparing normalized gene expression values in treated versus untreated controls for each sample.
Total RNA was extracted from the NCI-H1650 cell line using the RNeasy kit (Qiagen). cDNA synthesis was performed using Superscript II RNase H– reverse transcriptase (Life Technologies, Bethesda, MD, USA) to transcribe 2 μg of total RNA primed with 1 μL of 500 μg/mL random hexamers. For quantitative real-time PCR analysis, an ABI TaqMan assay (HS00378697) was used in an ABI 7300 system with the following profile: 95°C for 10 min, followed by 40 cycles of 15 s at 95°C and 60 s at 60°C. PUMA, NOXA, and CDIP1 mRNA levels were normalized by comparison to GAPDH RNA levels in the same samples. Each measurement was performed at least in duplicate.

T2 sequence (P23458 whole entry): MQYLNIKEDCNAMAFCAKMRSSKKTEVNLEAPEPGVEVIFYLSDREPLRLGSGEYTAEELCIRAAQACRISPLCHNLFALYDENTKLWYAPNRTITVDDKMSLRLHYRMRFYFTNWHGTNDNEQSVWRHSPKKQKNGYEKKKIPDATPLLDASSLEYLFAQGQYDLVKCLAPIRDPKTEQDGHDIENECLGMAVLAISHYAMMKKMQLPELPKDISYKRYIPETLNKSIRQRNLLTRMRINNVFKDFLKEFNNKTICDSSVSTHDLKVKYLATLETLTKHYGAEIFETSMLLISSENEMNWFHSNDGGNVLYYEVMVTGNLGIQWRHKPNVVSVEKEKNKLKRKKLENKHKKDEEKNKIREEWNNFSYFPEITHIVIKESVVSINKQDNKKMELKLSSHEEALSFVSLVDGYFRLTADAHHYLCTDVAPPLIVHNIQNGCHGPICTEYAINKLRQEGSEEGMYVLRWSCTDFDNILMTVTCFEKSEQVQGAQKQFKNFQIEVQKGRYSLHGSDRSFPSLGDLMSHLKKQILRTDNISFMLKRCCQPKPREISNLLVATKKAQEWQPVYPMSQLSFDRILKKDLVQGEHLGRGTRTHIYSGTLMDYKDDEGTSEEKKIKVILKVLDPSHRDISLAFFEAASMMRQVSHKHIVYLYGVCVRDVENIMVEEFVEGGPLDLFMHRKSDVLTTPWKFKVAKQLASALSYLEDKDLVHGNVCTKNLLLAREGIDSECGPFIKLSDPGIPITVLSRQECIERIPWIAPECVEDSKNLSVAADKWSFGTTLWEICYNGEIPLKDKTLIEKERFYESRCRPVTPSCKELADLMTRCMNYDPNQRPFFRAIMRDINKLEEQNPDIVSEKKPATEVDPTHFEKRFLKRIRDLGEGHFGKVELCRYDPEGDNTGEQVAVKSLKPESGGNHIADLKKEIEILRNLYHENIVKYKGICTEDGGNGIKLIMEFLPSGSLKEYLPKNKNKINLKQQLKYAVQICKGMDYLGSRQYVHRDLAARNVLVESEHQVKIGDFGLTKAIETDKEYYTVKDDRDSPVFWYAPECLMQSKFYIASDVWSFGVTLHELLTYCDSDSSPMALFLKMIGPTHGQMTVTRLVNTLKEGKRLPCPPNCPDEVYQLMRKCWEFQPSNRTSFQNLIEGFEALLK
T4 sequence (P29597 whole entry): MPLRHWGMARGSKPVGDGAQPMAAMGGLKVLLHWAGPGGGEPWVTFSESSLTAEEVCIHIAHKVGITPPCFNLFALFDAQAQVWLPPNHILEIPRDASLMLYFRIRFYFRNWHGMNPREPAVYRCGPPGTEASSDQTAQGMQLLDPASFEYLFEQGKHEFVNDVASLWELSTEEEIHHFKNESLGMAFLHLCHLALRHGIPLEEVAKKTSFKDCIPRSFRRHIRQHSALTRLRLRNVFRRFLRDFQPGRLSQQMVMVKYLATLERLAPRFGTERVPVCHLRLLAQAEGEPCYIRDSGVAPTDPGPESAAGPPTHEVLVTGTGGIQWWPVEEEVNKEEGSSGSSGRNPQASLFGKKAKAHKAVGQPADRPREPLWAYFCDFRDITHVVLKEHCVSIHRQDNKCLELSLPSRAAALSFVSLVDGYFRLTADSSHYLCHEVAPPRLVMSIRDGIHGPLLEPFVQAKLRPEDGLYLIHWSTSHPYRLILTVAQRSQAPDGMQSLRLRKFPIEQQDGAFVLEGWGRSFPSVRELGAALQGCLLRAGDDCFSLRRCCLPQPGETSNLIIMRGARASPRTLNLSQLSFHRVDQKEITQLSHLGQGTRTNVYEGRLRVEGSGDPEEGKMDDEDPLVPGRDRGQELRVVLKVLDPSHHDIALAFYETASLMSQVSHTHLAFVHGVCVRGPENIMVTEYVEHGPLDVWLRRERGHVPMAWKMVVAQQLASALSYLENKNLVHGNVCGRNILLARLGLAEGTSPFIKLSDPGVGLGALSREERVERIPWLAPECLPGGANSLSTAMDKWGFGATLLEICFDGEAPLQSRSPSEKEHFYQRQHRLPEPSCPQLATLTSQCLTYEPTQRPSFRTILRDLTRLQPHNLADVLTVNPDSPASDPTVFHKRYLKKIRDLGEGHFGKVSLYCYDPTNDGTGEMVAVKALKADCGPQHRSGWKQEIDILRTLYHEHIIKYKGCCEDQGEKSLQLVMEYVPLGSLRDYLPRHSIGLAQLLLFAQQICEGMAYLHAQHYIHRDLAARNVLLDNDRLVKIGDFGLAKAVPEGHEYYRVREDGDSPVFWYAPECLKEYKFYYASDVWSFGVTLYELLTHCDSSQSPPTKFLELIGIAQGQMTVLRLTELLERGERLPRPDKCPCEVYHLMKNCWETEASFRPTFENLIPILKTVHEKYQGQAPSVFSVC
T3 sequence (O60674 whole entry): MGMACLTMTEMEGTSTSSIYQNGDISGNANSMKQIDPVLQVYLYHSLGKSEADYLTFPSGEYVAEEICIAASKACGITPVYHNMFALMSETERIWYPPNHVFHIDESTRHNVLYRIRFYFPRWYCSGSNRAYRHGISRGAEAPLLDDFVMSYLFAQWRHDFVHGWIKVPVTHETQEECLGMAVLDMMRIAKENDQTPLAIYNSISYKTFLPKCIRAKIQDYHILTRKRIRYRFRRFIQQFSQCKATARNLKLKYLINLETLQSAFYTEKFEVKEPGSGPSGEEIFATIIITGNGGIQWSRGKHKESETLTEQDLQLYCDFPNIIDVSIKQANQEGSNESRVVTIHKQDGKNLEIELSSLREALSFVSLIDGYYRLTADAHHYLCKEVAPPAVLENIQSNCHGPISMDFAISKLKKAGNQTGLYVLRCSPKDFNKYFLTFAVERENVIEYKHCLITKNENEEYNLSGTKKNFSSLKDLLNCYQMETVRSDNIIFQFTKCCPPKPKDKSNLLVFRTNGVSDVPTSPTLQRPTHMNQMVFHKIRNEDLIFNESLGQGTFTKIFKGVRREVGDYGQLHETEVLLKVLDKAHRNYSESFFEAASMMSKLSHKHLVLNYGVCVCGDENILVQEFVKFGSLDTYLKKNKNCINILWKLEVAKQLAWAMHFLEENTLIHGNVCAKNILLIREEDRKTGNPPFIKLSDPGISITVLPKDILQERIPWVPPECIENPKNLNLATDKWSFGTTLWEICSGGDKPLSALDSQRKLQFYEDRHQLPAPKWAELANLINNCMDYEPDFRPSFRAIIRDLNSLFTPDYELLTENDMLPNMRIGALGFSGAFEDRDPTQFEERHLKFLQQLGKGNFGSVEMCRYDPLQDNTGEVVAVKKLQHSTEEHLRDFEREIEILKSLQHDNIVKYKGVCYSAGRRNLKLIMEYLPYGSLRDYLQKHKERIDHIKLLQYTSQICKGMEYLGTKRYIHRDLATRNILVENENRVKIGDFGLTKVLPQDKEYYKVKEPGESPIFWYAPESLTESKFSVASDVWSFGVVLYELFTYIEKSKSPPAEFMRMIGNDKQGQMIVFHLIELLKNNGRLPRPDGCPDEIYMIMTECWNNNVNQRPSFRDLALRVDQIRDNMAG

Compound | IC50 (NCI-H1650 cells) [µM] | inhibition of JAK3 kinase activity (in words) (JAK3) | IC50 (JAK3; JAK3 enzyme, read-out: IC50) [µM] | inhibition of JAK1 kinase activity (in words) (JAK1) | IC50 (JAK1; JAK1 enzyme, read-out: IC50) [µM] | difference in IC50s between JAK2 and Tyk2 (JAK2) [fold] | inhibition of JAK2 kinase activity (in words) (JAK2) | IC50 (JAK2; JAK2 enzyme, read-out: IC50) [µM] | inhibition of Tyk2 kinase activity (in words) (Tyk2) | IC50 (Tyk2; Tyk2 enzyme, read-out: IC50) [µM] | induction of CIDP mRNA [1] | induction of NOXA mRNA [1] | induction of PUMA mRNA [1] | IC50 (JAK3; IC50, JAK3 enzyme) [µM] | IC50 (JAK1) [µM] | IC50 (JAK2; IC50, JAK2 enzyme) [µM] | IC50 (Tyk2) [µM]
CC(C)=CCC[C@@]1(C)C=Cc2c(O)c3c(c(C/C=C(\C)CO)c2O1)O[C@]12C(=C[C@@H]4C[C@H]1C(C)(C)O[C@@]2(C/C=C(/C)C(=O)O)C4=O)C3=O [GB40, 35-hydroxyepigambogic acid] | 1.07 ± 0.04 | significantly inhibited | 3.2 ± 0.2 | minor inhibitory effects | 14.2 ± 0.4 | 10 | significantly inhibited | 1.4 ± 0.1 | minor inhibitory effects | 12.9 ± 0.9 | 2 fold | greater than 5 fold | 2 fold | – | – | – | –
CC(C)=CCC/C(C)=C/Cc1c(O)c(CC=C(C)C)c2c(c1O)C(=O)C1=C[C@@H]3C[C@H]4C(C)(C)O[C@@](CC=C(C)C)(C3=O)[C@@]14O2 [GB32] | 3.13 ± 0.3 | minor inhibition | – | no effect | – | – | minor inhibition | – | no effect | – | no effect | no effect | no effect | 17.5 ± 1.5 | > 40 | 37.3 ± 6.9 | > 40
CC(C)=CCC/C(C)=C/Cc1c(O)c(CC=C(C)C)c2c(c1O)C(=O)C1=C[C@@H]3C[C@H]4C(C)(C)O[C@@](C/C=C(\C)C(=O)O)(C3=O)[C@@]14O2 [GB63] | 2.66 ± 0.15 | – | – | – | – | – | – | – | – | – | no effect | no effect | no effect | – | – | – | –
CC(C)=CCC[C@@]1(C)C=Cc2c(O)c3c(c(CCC(C)(C)O)c2O1)O[C@]12C(=C[C@@H]4C[C@H]1C(C)(C)O[C@@]2(C/C=C(/C)C(=O)O)C4=O)C3=O [GB39, 33-hydroxyepigambogic acid] | 1.26 ± 0.01 | significantly inhibited | 3.8 ± 0.3 | minor inhibitory effects | 12.2 ± 0.3 | 10 | significantly inhibited | 1.7 ± 0.1 | minor inhibitory effects | 13 ± 1.6 | 3 fold | greater than 5 fold | 3 fold | – | – | – | –
CC(C)=CCC/C(C)=C/Cc1c(O)c(CC=C(C)C)c2c(c1O)C(=O)C1=C[C@@H]3C[C@H]4C(C)(C)O[C@@](C/C=C(\C)C=O)(C3=O)[C@@]14O2 [GB49] | 3.92 ± 0.13 | – | – | – | – | – | – | – | – | – | no effect | no effect | no effect | – | – | – | –
